This is an account of results in the supplement of paper PMC10307832.

Assay in all cases: relative viability (nuclei count vs DMSO), 5 days (fraction); higher = more cells survive
Compound in one experiment: C1=CC=C2C(=C1)C=CC(=C2SSC3=C(C=CC4=CC=CC=C43)O)O [IPA-3]
The procedure, abridged:
(§1)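 Five library-drug doses spaced by √10 were pinned onto vehicle-anchored 1536-well plates of lung cancer cell lines that had been kept overnight at 37 °C. Cells went 5 days without medium change, then were fixed, permeabilised and Hoechst-stained together, imaged at 4× and counted by MetaXpress. Viability is the ratio of treated-well to vehicle-well nuclei, taken as a median over plates. Plates required control CV below 25% and at least one doubling.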

Compound in the next experiment: Cc1ccc(-n2nc(C(C)(C)C)cc2NC(=O)Nc2ccc(OCCN3CCOCC3)c3ccccc23)cc1 [Doramapimod]
The method, boiled down:
as §1

Compound in another experiment: Cn1c(Nc2ccc(C(F)(F)F)cc2)nc2cc(Oc3ccnc(-c4ncc(C(F)(F)F)[nH]4)c3)ccc21 [RAF265]
The procedure, abridged:
as §1

Compound in the experiment “Doramapimod + Decitabine”: Cc1ccc(-n2nc(C(C)(C)C)cc2NC(=O)Nc2ccc(OCCN3CCOCC3)c3ccccc23)cc1 [Doramapimod] + Nc1ncn([C@H]2C[C@H](O)[C@@H](CO)O2)c(=O)n1 [Decitabine] (partner 2 µM)
The method, boiled down: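 Nuclei were stained with Hoechst during a one-step fixation (final 0.05% Triton X-100, 1% formaldehyde, 1 ug/ml Hoechst) carried out 5 days after dosing, then counted on 4× images. The cells, lung cancer lines in 1536-well plates, had been dosed by pin tool the day after seeding with one drug alone or a fixed anchor-drug dose plus five library-drug doses (not always all listed) in √10 steps. Relative viability is the nuclei count in treated wells divided by that in vehicle wells, and each value is the median of duplicate plates.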

Turning to UMC-11, the relative viability with IPA-3 (0.2 µM) amounted to 1.08; with IPA-3 (0.6325 µM), 0.932; with IPA-3 (2 µM), 0.967; with IPA-3 (6.325 µM) it was 0.916; with IPA-3 (20 µM), 1.09; with Doramapimod (0.02 µM) it was 0.904. Besides, the relative viability was 0.934 with Doramapimod (0.06325 µM); 0.956 in the experiment with Doramapimod (0.2 µM); 0.782 with Doramapimod (0.6325 µM); 0.841 with Doramapimod (2 µM); 0.975 in the experiment with RAF265 (0.01 µM); 0.95 with RAF265 (0.03162 µM). For the same cell line, the relative viability amounted to 0.942 with RAF265 (0.1 µM); 0.948 with RAF265 (0.3162 µM); 0.872 with RAF265 (1 µM); 0.65 in the experiment with Doramapimod + Decitabine (first compound 0.02 µM); 0.584 in the experiment with Doramapimod + Decitabine (first compound 0.06325 µM); 0.646 with Doramapimod + Decitabine (first compound 0.2 µM). Besides, the results for the relative viability with Doramapimod + Decitabine (first compound 0.6325 µM) and in the experiment with Doramapimod + Decitabine (first compound 2 µM) were 0.723 and 0.419, respectively.
